# Results: patent US20250388607A1, “A BROMOTAG-BASED TOOLKIT FOR RAPID INDUCTION OF CHEMICALLY INDUCED PROXIMITY” (THE BOARD OF TRUSTEES OF THE LELAND STANFORD JUNIOR …, priority 2024, published 2025)
# Entries after “also recorded” stand apart in the source; their conditions may differ.
# What was measured:
# [1] = molecular target: T1, BromoTag (Homo sapiens, UniProt O60885, L387A); assay: NanoBiT assay, BromoTag homodimerization, tag expressed alone; format: cell-based; conditions: all orientations of LgBiT and SmBiT tags; FIGS. 4A-4D and 5; high background
# T1 construct: BRD4 BD2 L387A mutant tag; expressed in transfected cells; host or cells: HEK293T
# Text: (§1) FKBP/BromoTag NanoBiT-tagged construct cloning. FKBP12F36V and BromoTag sequences were cloned using Gibson assembly into pBiT1.1-C [TK/LgBiT], pBiT2.1-C [TK/SmBiT], pBiT1.1-N [TK/LgBiT], and pBiT2.1-N [TK/SmBiT] vectors included in the NanoBiT® PPI MCS Starter System kit (Promega #N2014). […] pBiT1.1 and pBiT2.1 vectors were linearized at EcoRI and NheI cut sites, inserts were amplified with PCR, and constructs were ligated using NEBuilder® HiFi DNA Assembly Master Mix.
# (§2) NanoBiT assay. 15k HEK293T cells per well were plated in 92 ul DMEM+10% FBS in opaque 96-well plates and allowed to adhere overnight, approximately 18-24 hours. HEK293T cells were subsequently transfected with pBiT1.1 (LgBiT-tagged) or pBiT2.1 (SmBiT-tagged) FKBP12F36V and/or BromoTag vectors, using TransIT-LT1 transfection reagent (Mirus #MIR2300) and Opti-MEM (Gibco #31985062). After 24 hours, 25 ul Nano-Glo® Live Cell Reagent was added to each well to measure dimerization signal. Using a PHERAstar FSX, baseline luminescence was measured for five or six cycles (approximately eight to ten minutes). Test dimerizer compounds freshly diluted in DMEM+10% FBS were then manually spiked in and induced luminescence was measured continuously for up to two hours. All summary figures were generated with GraphPad Prism. Data for the NanoBit assay is provided in FIGS. 1A-1D, 2A-2B, 3A-3B, 4A-4D, 5, 6A-6B, 7, and 12A-12C.
# [2] = molecular target: T2, FKBP12F36V and BromoTag (Homo sapiens, UniProt O60885+P62942, F37V/L387A); assay: NanoBiT assay, FKBP/BromoTag heterodimerization, tags expressed alone; format: cell-based; conditions: all LgBiT and SmBiT tag orientations; FIGS. 1A-1D; HEK293T
# T2 construct: BRD4 BD2 L387A mutant tag; LgBiT or SmBiT (NanoBiT subunit); expressed in transfected cells; host or cells: HEK293T
# Text: as §1
# as §2, with “All summary figures were generated with GraphPad Prism. Data for the NanoBit assay is provided in FIGS. 1A-1D, 2A-2B, 3A-3B, 4A-4D, 5, 6A-6B, 7, and 12A-12C.” left out
# T2 sequence (P62942 whole entry F37V, other chains not shown): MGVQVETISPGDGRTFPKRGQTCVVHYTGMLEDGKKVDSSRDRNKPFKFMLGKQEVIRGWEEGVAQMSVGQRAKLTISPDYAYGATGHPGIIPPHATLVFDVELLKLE
Compound,max dimerization signal compared with DMSO [1],max dimerization signal compared with FKBP12WT/FRB-rapamycin control [1],max dimerization signal compared with FKBP12WT/FRB-rapamycin (sirolimus) control [2]
"CC[C@@H](C(=O)NCCOCCOCCNC(=O)[C@H](CC)[C@@H]1N=C(c2ccc(Cl)cc2)c2c(sc(C)c2C)-n2c(C)nnc21)[C@@H]1N=C(c2ccc(Cl)cc2)c2c(sc(C)c2C)-n2c(C)nnc21 [MMH-05-01-03, (2R,2′R)-N,N′-((ethane-1,2-diylbis(oxy))bis(ethane-2,1-diyl))bis(2-((S)-4-(4-chlorophenyl)-2,3,9-trimethyl-6H-thieno[3,2-f][1,2,4]triazolo[4,3-a][1,4]diazepin-6-yl)butanamide)]",improved max dimerization signal over DMSO; also recorded: in most NanoBiT tag orientations have improved signal over DMSO,significantly higher signal; also recorded: outperformed existing FKBP12WT/FRB-rapamycin heterodimerization system,–
"CC[C@@H](C(=O)NCCCCCCNC(=O)[C@H](CC)[C@@H]1N=C(c2ccc(Cl)cc2)c2c(sc(C)c2C)-n2c(C)nnc21)[C@@H]1N=C(c2ccc(Cl)cc2)c2c(sc(C)c2C)-n2c(C)nnc21 [MMH-05-01-02, (2R,2′R)-N,N′-(hexane-1,6-diyl)bis(2-((S)-4-(4-chlorophenyl)-2,3,9-trimethyl-6H-thieno[3,2-f][1,2,4]triazolo[4,3-a][1,4]diazepin-6-yl)butanamide)]",improved max dimerization signal over DMSO; also recorded: in most NanoBiT tag orientations have improved signal over DMSO,significantly higher signal; also recorded: outperformed existing FKBP12WT/FRB-rapamycin heterodimerization system,–
"CC[C@H](C(=O)N1CCCC[C@H]1C(=O)O[C@H](CCc1ccc(OC)c(OC)c1)c1cccc(OCC(=O)NCCCCCCNC(=O)[C@H](CC)[C@@H]2N=C(c3ccc(Cl)cc3)c3c(sc(C)c3C)-n3c(C)nnc32)c1)c1cc(OC)c(OC)c(OC)c1 [MMH-04-74, (R)-1-(3-(2-((6-((R)-2-((S)-4-(4-chlorophenyl)-2,3,9-trimethyl-6H-thieno[3,2-f][1,2,4]triazolo[4,3-a][1,4]diazepin-6-yl)butanamido)hexyl)amino)-2-oxoethoxy)phenyl)-3-(3,4-dimethoxyphenyl)propyl (S)-1-((S)-2-(3,4,5-trimethoxyphenyl)butanoyl)piperidine-2-carboxylate]",–,–,dramatically higher max dimerization signal
